Values quoted from earlier work in Sander's compilation of Henry's law constants.
Several values for one entry are separate records, joined by “and”; a condition that tells them apart may be missing. Equal entries are not always repeated.

Test: Henry solubility constant Hcp at 298.15 K (mol/(m3 Pa))
Conditions: cited value
[1] = reference: Barcelo and Hennion (1997)
[2] = reference: Burkholder et al. (2015)
[3] = reference: Burkholder et al. (2019)
[4] = reference: Sander et al. (2006)
[5] = reference: Sander et al. (2011)
[6] = reference: Mackay et al. (1995)
[7] = reference: Fogg and Sangster (2003)
[8] = reference: Gaffney and Senum (1984)
[9] = reference: Murphy et al. (1983b)

ClCCCCCCl [1,5-dichloropentane]
Henry solubility constant Hcp (reference: Brockbank (2013)): 0.01

Clc1cccc(Cl)c1Cl [1,2,3-trichlorobenzene]
Henry solubility constant Hcp (reference: Brockbank (2013)): 0.0062

COc1nc(NC(C)C)nc(NC(C)C)n1 [prometone]
Henry solubility constant Hcp [1]: 110

CCOC(=O)C(C)(C)C [ethyl 2,2-dimethylpropanoate]
Henry solubility constant Hcp (reference: Brockbank (2013)): 0.0064

[C-]#[O+] [carbon monoxide]
Henry solubility constant Hcp [2]: 9.7e-06
Henry solubility constant Hcp [3]: 9.7e-06
Henry solubility constant Hcp [4]: 9.7e-06
Henry solubility constant Hcp [5]: 9.7e-06

CCCC=O [butanal]
Henry solubility constant Hcp (reference: Brockbank (2013)): 0.091
Henry solubility constant Hcp [2]: 0.095
Henry solubility constant Hcp [3]: 0.095
Henry solubility constant Hcp [4]: 0.095
Henry solubility constant Hcp [5]: 0.095

COCCOC [1,2-dimethoxyethane]
Henry solubility constant Hcp (reference: Brockbank (2013)): 1.3

COP(=S)(OC)Oc1ccc([N+](=O)[O-])c(C)c1 [fenitrothion]
Henry solubility constant Hcp [1]: 2.7

CCCN(CCC)N=O [N-nitrosodipropylamine]
Henry solubility constant Hcp [6]: 1.6

CCCCCCCBr [1-bromoheptane]
Henry solubility constant Hcp (reference: Brockbank (2013)): 0.00022

ClCCCCCl [1,4-dichlorobutane]
Henry solubility constant Hcp (reference: Brockbank (2013)): 0.02

CC(=O)OC(C)(C)C [1,1-dimethylethyl ethanoate]
Henry solubility constant Hcp (reference: Brockbank (2013)): 0.012

CC(=O)OCC(F)(F)F [2,2,2-trifluoroethyl ethanoate]
Henry solubility constant Hcp [2]: 0.0055
Henry solubility constant Hcp [3]: 0.0055
Henry solubility constant Hcp [5]: 0.0055

C[Si](Cn1cncn1)(c1ccc(F)cc1)c1ccc(F)cc1 [flusilazole]
Henry solubility constant Hcp [1]: 27

Cc1cccc(N)c1 [3-methylbenzenamine]
Henry solubility constant Hcp (reference: Brockbank (2013)): 5.6

CO/N=C(/C(=O)OC)c1ccccc1CO/N=C(\C)c1cccc(C(F)(F)F)c1 [trifloxystrobin]
Henry solubility constant Hcp (reference: MacBean (2012b)): 430

CCCC[N+](=O)[O-] [1-nitrobutane]
Henry solubility constant Hcp (reference: Brockbank (2013)): 0.076

ClCC1CO1 (stereo not given) [(chloromethyl)-oxirane]
Henry solubility constant Hcp (reference: Goldstein (1982)): 0.28

Clc1cccc(Cl)c1 [1,3-dichlorobenzene]
Henry solubility constant Hcp (reference: Brockbank (2013)): 0.0031
Henry solubility constant Hcp [7]: 0.0034
Henry solubility constant Hcp (reference: Goldstein (1982)): 0.0039

ClNCl [dichloramine]
Henry solubility constant Hcp [2]: 0.29
Henry solubility constant Hcp [3]: 0.29
Henry solubility constant Hcp [4]: 0.29
Henry solubility constant Hcp [5]: 0.29

C=CC=O [propenal]
Henry solubility constant Hcp (reference: Brockbank (2013)): 0.072
Henry solubility constant Hcp [8]: 0.081
Henry solubility constant Hcp (reference: Goldstein (1982)): 0.1
Henry solubility constant Hcp (reference: Howard (1989)): 2.2

Cc1cc(C)cc(O)c1 [1-hydroxy-3,5-dimethylbenzene]
Henry solubility constant Hcp (reference: Brockbank (2013)): 15

CCCCC#N [pentanenitrile]
Henry solubility constant Hcp (reference: Brockbank (2013)): 0.16
Henry solubility constant Hcp (reference: Plyasunov et al. (2006)): 0.14

COCOC [dimethoxymethane]
Henry solubility constant Hcp (reference: Brockbank (2013)): 0.061
Henry solubility constant Hcp (reference: Pierotti et al. (1959)): 0.057

CN(C)C(=O)Nc1ccc(Cl)c(Cl)c1 [diuron]
Henry solubility constant Hcp [1]: 8.2

OCC(F)(F)F [2,2,2-trifluoroethanol]
Henry solubility constant Hcp [2]: 0.47
Henry solubility constant Hcp [3]: 0.47
Henry solubility constant Hcp [5]: 0.47

CCCCN [1-butanamine]
Henry solubility constant Hcp (reference: Brockbank (2013)): 0.54
Henry solubility constant Hcp [2]: 0.56
Henry solubility constant Hcp [3]: 0.56

Nc1ccc(Cl)cc1 [1-amino-4-chlorobenzene]
Henry solubility constant Hcp (reference: Howard (1989)): 0.92

c1ccc2ncccc2c1 [benzo[b]pyridine]
Henry solubility constant Hcp (reference: Goldstein (1982)): 37

OO [hydrogen peroxide]
Henry solubility constant Hcp (reference: Brockbank (2013)): 950
Henry solubility constant Hcp [2]: 860
Henry solubility constant Hcp [3]: 860
Henry solubility constant Hcp [7]: 980
Henry solubility constant Hcp [4]: 760
Henry solubility constant Hcp [5]: 830

ClC1=C(Cl)[C@]2(Cl)[C@@H]3[C@@H]4C[C@@H]([C@H]5O[C@@H]45)[C@@H]3[C@@]1(Cl)C2(Cl)Cl [dieldrin]
Henry solubility constant Hcp [1]: 0.0088

CNC(=O)ON=C(SC)C(=O)N(C)C [oxamyl]
Henry solubility constant Hcp [1]: 38

CCc1ccccc1 [ethylbenzene]
Henry solubility constant Hcp (reference: Brockbank (2013)): 0.0013
Henry solubility constant Hcp [7]: 0.0014
Henry solubility constant Hcp (reference: Goldstein (1982)): 0.0016

Cc1ccccc1O [1-hydroxy-2-methylbenzene]
Henry solubility constant Hcp (reference: Brockbank (2013)): 6.7
Henry solubility constant Hcp [8]: 8.2
Henry solubility constant Hcp (reference: Howard (1989)): 6.2

CC(=O)CF [1-fluoro-2-propanone]
Henry solubility constant Hcp [2]: 0.46
Henry solubility constant Hcp [3]: 0.46

OCc1ccccc1 [(hydroxymethyl)-benzene]
Henry solubility constant Hcp (reference: Howard (1993)): 25

c1ccc2c(c1)oc1ccccc12 [dibenzofuran]
Henry solubility constant Hcp (reference: Brockbank (2013)): 0.074
Henry solubility constant Hcp (reference: Mackay et al. (1992b)): 0.091

Brc1ccc(Br)cc1 [1,4-dibromobenzene]
Henry solubility constant Hcp (reference: Kuramochi et al. (2004)): 0.011

CC(CCl)OC(C)CCl (stereo not given) [bis-(2-chloroisopropyl) ether]
Henry solubility constant Hcp (reference: Goldstein (1982)): 0.065 and 0.064

Cc1ccccn1 [2-methylpyridine]
Henry solubility constant Hcp (reference: Brockbank (2013)): 0.98

Clc1ccc(Cl)c(-c2cc(Cl)ccc2Cl)c1 [2,2',5,5'-tetrachlorobiphenyl]
Henry solubility constant Hcp [9]: 0.038

O=C(O)C(Br)(Br)Br [tribromoethanoic acid]
Henry solubility constant Hcp [2]: 3000
Henry solubility constant Hcp [3]: 3000
Henry solubility constant Hcp [5]: 3000

CCOC(=O)CC(=O)OCC [propanedioic acid, diethyl ester]
Henry solubility constant Hcp (reference: Brockbank (2013)): 3.9

CN(C)C(=S)SSC(=S)N(C)C [thiram]
Henry solubility constant Hcp (reference: MacBean (2012b)): 30

CC(C)CC(C)C [2,4-dimethylpentane]
Henry solubility constant Hcp (reference: Brockbank (2013)): 2.9e-06

Clc1cc(Cl)c(-c2cc(Cl)c(Cl)cc2Cl)cc1Cl [2,2',4,4',5,5'-hexachlorobiphenyl]
Henry solubility constant Hcp [9]: 0.028

C=CCl [chloroethene]
Henry solubility constant Hcp (reference: Brockbank (2013)): 0.00043
Henry solubility constant Hcp [2]: 0.00038
Henry solubility constant Hcp [3]: 0.00038

CCOP(=S)(OCC)Oc1cc(C)nc(C(C)C)n1 [diazinon]
Henry solubility constant Hcp [1]: 0.15
Henry solubility constant Hcp (reference: Muir et al. (2004)): 46 and 92

Cc1ccc(NC(=O)N(C)C)cc1Cl [chlortoluron]
Henry solubility constant Hcp [1]: 190

COc1cc(C=O)ccc1O [vanillin]
Henry solubility constant Hcp (reference: Brockbank (2013)): 1700

CC(C)OC(=O)Nc1cccc(Cl)c1 [chlorpropham]
Henry solubility constant Hcp [1]: 47

[CH3][Hg][Cl] [chloromethylmercury]
Henry solubility constant Hcp (reference: WHO (1990)): 20

CC(=O)OO [ethanoic peroxyacid]
Henry solubility constant Hcp [2]: 8.3
Henry solubility constant Hcp [3]: 8.3
Henry solubility constant Hcp [5]: 8.3

CCCC(C)O (stereo not given) [2-pentanol]
Henry solubility constant Hcp (reference: Brockbank (2013)): 0.67

CCCOC(=O)c1ccccc1C(=O)OCCC [dipropyl phthalate]
Henry solubility constant Hcp (reference: Brockbank (2013)): 22

C1=CCCCCC1 [cycloheptene]
Henry solubility constant Hcp (reference: Brockbank (2013)): 0.0002

BrC(Br)Br [tribromomethane]
Henry solubility constant Hcp (reference: Brockbank (2013)): 0.018
Henry solubility constant Hcp [2]: 0.017
Henry solubility constant Hcp [3]: 0.017
Henry solubility constant Hcp (reference: Goldstein (1982)): 0.018
Henry solubility constant Hcp (reference: Nicholson et al. (1984)): 0.017
Henry solubility constant Hcp [4]: 0.017
Henry solubility constant Hcp [5]: 0.017

C=CC#N [2-propenenitrile]
Henry solubility constant Hcp (reference: Brockbank (2013)): 0.1
Henry solubility constant Hcp (reference: Goldstein (1982)): 0.11
Henry solubility constant Hcp [6]: 0.11

CCOC(C)(C)C [ethyl tert-butyl ether]
Henry solubility constant Hcp (reference: Brockbank (2013)): 0.0072

C=CCCCCCCCC [1-decene]
Henry solubility constant Hcp (reference: Brockbank (2013)): 8.6e-06

FC(F)(F)Cl [chlorotrifluoromethane]
Henry solubility constant Hcp [2]: 9.9e-06
Henry solubility constant Hcp [3]: 9.9e-06
Henry solubility constant Hcp [5]: 9.9e-06

C/C=C\CCCC [cis-2-heptene]
Henry solubility constant Hcp (reference: Brockbank (2013)): 2.4e-05

CCC(C)CO (stereo not given) [2-methyl-1-butanol]
Henry solubility constant Hcp (reference: Brockbank (2013)): 0.76

ClCC(Cl)CCl [1,2,3-trichloropropane]
Henry solubility constant Hcp (reference: Brockbank (2013)): 0.033
Henry solubility constant Hcp [2]: 0.036
Henry solubility constant Hcp [3]: 0.036

O=C(O)C1(C(=O)Nc2ccc(Cl)cc2Cl)CC1 [cyclanilide]
Henry solubility constant Hcp (reference: MacBean (2012b)): 14000

CCCOC(C)=O [propyl ethanoate]
Henry solubility constant Hcp (reference: Brockbank (2013)): 0.044

FC(F)(F)C(Cl)Br (stereo not given) [1-bromo-1-chloro-2,2,2-trifluoroethane]
Henry solubility constant Hcp [7]: 0.00056

Clc1ccccc1-c1ccccc1Cl [2,2'-dichlorobiphenyl]
Henry solubility constant Hcp [9]: 0.045

CC1CCCCC1 [methylcyclohexane]
Henry solubility constant Hcp (reference: Brockbank (2013)): 2.6e-05

C1CCCCC1 [cyclohexane]
Henry solubility constant Hcp (reference: Brockbank (2013)): 5.1e-05
Henry solubility constant Hcp (reference: Goldstein (1982)): 6.2e-05

O=C(O)C(Br)Br [dibromoethanoic acid]
Henry solubility constant Hcp [2]: 2300
Henry solubility constant Hcp [3]: 2300
Henry solubility constant Hcp [5]: 2300

COc1ccc(-c2ccccc2)cc1NNC(=O)OC(C)C [bifenazate]
Henry solubility constant Hcp (reference: MacBean (2012b)): 1000

CCCCCCCC [octane]
Henry solubility constant Hcp (reference: Brockbank (2013)): 3.4e-06

CCCC(O)CC (stereo not given) [3-hexanol]
Henry solubility constant Hcp (reference: Brockbank (2013)): 0.37

CCCCC(C)C [2-methylhexane]
Henry solubility constant Hcp (reference: Brockbank (2013)): 2.9e-06

CCCCCCl [1-chloropentane]
Henry solubility constant Hcp (reference: Brockbank (2013)): 0.00041

[Ne] [neon]
Henry solubility constant Hcp (reference: Clever (1979a)): 4.5e-06

C#CCCCC [1-hexyne]
Henry solubility constant Hcp (reference: Brockbank (2013)): 0.00026

CCSSCC [diethyl disulfide]
Henry solubility constant Hcp [2]: 0.0037
Henry solubility constant Hcp [3]: 0.0037

FC(F)OC(F)(F)C(F)Cl (stereo not given) [2-chloro-1,1,2-trifluoroethyl difluoromethyl ether]
Henry solubility constant Hcp [7]: 0.0003

Cc1[nH]c(=O)n(C(C)(C)C)c(=O)c1Cl [terbacil]
Henry solubility constant Hcp [1]: 550

O=C(Nc1ccccc1-c1ccc(Cl)cc1)c1cccnc1Cl [boscalid]
Henry solubility constant Hcp (reference: MacBean (2012b)): 19000

CNC(=O)Oc1ccccc1OC(C)C [propoxur]
Henry solubility constant Hcp [1]: 0.076
